# In patent publication US8802597B2, “Herbicidal pyrimidines” (E I du Pont de Nemours and Company, priority 2003, dated 2014):
# Where two headings read alike, the source gives them in different places.
# How the values were obtained:
# Assay type in all cases: in vivo
# [1] = tested on: lambsquarters (Chenopodium album); experiment: Test C pre/postemergence; settings: Chenopodium album; for pest or weed control at 31 g/ha: 31 g ai/ha; for pest or weed control at 62 g/ha: 62 g ai/ha; for pest or weed control at 125 g/ha: 125 g ai/ha; for pest or weed control at 250 g/ha: 250 g ai/ha
# Outline: (§1)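 Greenhouse herbicide screen, visual readout. Compound in solvent/surfactant applied preemergence at planting or postemergence to 1- to 4-leaf plants; assessed at 12–14 days on a 0–100 control scale.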
# [2] = tested on: soybean (Glycine max); experiment: Test C pre/postemergence; settings: Glycine max; for plant injury at 31 g/ha: 31 g ai/ha; for plant injury at 62 g/ha: 62 g ai/ha; for plant injury at 125 g/ha: 125 g ai/ha; for plant injury at 250 g/ha: 250 g ai/ha
# Outline: as §1
# [3] = tested on: bermudagrass (Cynodon dactylon); experiment: Test C pre/postemergence; settings: Cynodon dactylon; for pest or weed control at 31 g/ha: 31 g ai/ha; for pest or weed control at 62 g/ha: 62 g ai/ha; for pest or weed control at 125 g/ha: 125 g ai/ha; for pest or weed control at 250 g/ha: 250 g ai/ha
# Outline: as §1
# [4] = tested on: johnsongrass (Sorghum halepense); experiment: Test C pre/postemergence; settings: Sorghum halepense; for pest or weed control at 31 g/ha: 31 g ai/ha; for pest or weed control at 62 g/ha: 62 g ai/ha; for pest or weed control at 125 g/ha: 125 g ai/ha; for pest or weed control at 250 g/ha: 250 g ai/ha
# Outline: as §1
# [5] = tested on: chickweed (Stellaria media); experiment: Test C postemergence; settings: Stellaria media, post-emergence
# Outline: as §1
# [6] = tested on: giant foxtail (Setaria faberi); experiment: Test A pre/postemergence; settings: Setaria faberi, 240 h, read-out: Plant response rating, Foxtail, Giant; for pest or weed control at 125 g/ha: 125 g ai/ha; for pest or weed control at 500 g/ha: 500 g ai/ha
# Outline: (§2)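 Soil: loam blended with sand. Formulation: non-phytotoxic solvent mixture with surfactant. Timing: preemergence soil spray plus concurrent postemergence spray (plants 2–10 cm, 1–2 leaves). Readout: visual injury versus untreated controls at ~10 days, 0–100.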
# [7] = tested on: redroot pigweed (Amaranthus retroflexus); experiment: Test A pre/postemergence; settings: Amaranthus retroflexus, 240 h, read-out: Plant response rating, Pigweed; for pest or weed control at 125 g/ha: 125 g ai/ha; for pest or weed control at 500 g/ha: 500 g ai/ha
# Outline: as §2
# [8] = tested on: morningglory (Ipomoea spp.); experiment: Test A pre/postemergence; settings: Ipomoea, 240 h, read-out: Plant response rating, Morningglory; for pest or weed control at 125 g/ha: 125 g ai/ha; for pest or weed control at 500 g/ha: 500 g ai/ha
# Outline: as §2
# [9] = tested on: crabgrass (Digitaria sanguinalis); experiment: Test A pre/postemergence; settings: Digitaria sanguinalis, 240 h, read-out: Plant response rating, Crabgrass; for pest or weed control at 125 g/ha: 125 g ai/ha; for pest or weed control at 500 g/ha: 500 g ai/ha
# Outline: as §2
# [10] = tested on: velvetleaf (Abutilon theophrasti); experiment: Test A pre/postemergence; settings: Abutilon theophrasti, 240 h, read-out: Plant response rating, Velvetleaf; for pest or weed control at 125 g/ha: 125 g ai/ha; for pest or weed control at 500 g/ha: 500 g ai/ha
# Outline: as §2
# [11] = tested on: barnyardgrass (Echinochloa crus-galli); experiment: Test A pre/postemergence; settings: Echinochloa crus-galli, 240 h, read-out: Plant response rating, Barnyardgrass; for pest or weed control at 125 g/ha: 125 g ai/ha; for pest or weed control at 500 g/ha: 500 g ai/ha
# Outline: as §2
# [12] = post-emergence, Postemergence, scale 0 to 100 (0 no effect, 100 complete control), read-out: Lambsquarters plant response rating
# [13] = pre-emergence, Preemergence, scale 0 to 100, 0 no effect, 100 complete control, read-out: Plant response rating, Lambsquarters
# [14] = pre-emergence, Preemergence, scale 0 to 100, read-out: Plant response rating, Lambsquarters
# [15] = post-emergence, Postemergence, scale 0 to 100 (0 no effect, 100 complete control), read-out: Soybean plant response rating
# [16] = pre-emergence, Preemergence, scale 0 to 100, 0 no effect, 100 complete control, read-out: Plant response rating, Soybean
# [17] = pre-emergence, Preemergence, scale 0 to 100, read-out: Plant response rating, Soybean
# [18] = post-emergence, Postemergence, scale 0 to 100 (0 no effect, 100 complete control), read-out: Bermudagrass plant response rating
# [19] = pre-emergence, Preemergence, scale 0 to 100, 0 no effect, 100 complete control, read-out: Plant response rating, Bermudagrass
# [20] = pre-emergence, Preemergence, scale 0 to 100, read-out: Plant response rating, Bermudagrass
# [21] = post-emergence, Postemergence, scale 0 to 100 (0 no effect, 100 complete control), read-out: Johnsongrass plant response rating
# [22] = pre-emergence, Preemergence, scale 0 to 100, 0 no effect, 100 complete control, read-out: Plant response rating, Johnsongrass
# [23] = pre-emergence, Preemergence, scale 0 to 100, read-out: Plant response rating, Johnsongrass
# [24] = post-emergence, Postemergence, 0 to 100 scale (0 no effect, 100 complete control)
# [25] = pre-emergence, Preemergence, 0 to 100 scale where 0 is no effect and 100 is complete control, approximately ten days
smiles,measurement,setting,value
"CCOC(=O)c1nc(-c2ccc(Cl)cc2)nc(N)c1Cl [Compound 64, ethyl 6-amino-5-chloro-2-(4-chlorophenyl)-4-pyrimidinecarboxylate]",pest or weed control at 31 g/ha,"[1]; post-emergence, Postemergence, read-out: Plant response rating (scale of 0 to 100), Lambsquarters",80%
same,pest or weed control at 62 g/ha,[1]; [12],90%
same,pest or weed control at 125 g/ha,[1]; [12],90%
same,pest or weed control at 250 g/ha,"[1]; post-emergence, Postemergence, scale 0 to 100, read-out: Plant response rating, Lambsquarters",90%
same,pest or weed control at 31 g/ha,[1]; [13],70%
same,pest or weed control at 62 g/ha,[1]; [13],95%
same,pest or weed control at 125 g/ha,[1]; [14],95%
same,pest or weed control at 250 g/ha,[1]; [14],100%
same,plant injury at 31 g/ha,"[2]; post-emergence, Postemergence, read-out: Plant response rating (scale of 0 to 100), Soybean",90%
same,plant injury at 62 g/ha,[2]; [15],90%
same,plant injury at 125 g/ha,[2]; [15],100%
same,plant injury at 250 g/ha,"[2]; post-emergence, Postemergence, scale 0 to 100, read-out: Plant response rating, Soybean",100%
same,plant injury at 31 g/ha,[2]; [16],0%
same,plant injury at 62 g/ha,[2]; [16],85%
same,plant injury at 125 g/ha,[2]; [17],85%
same,plant injury at 250 g/ha,[2]; [17],85%
same,pest or weed control at 31 g/ha,"[3]; post-emergence, Postemergence, read-out: Plant response rating (scale of 0 to 100), Bermudagrass",20%
same,pest or weed control at 62 g/ha,[3]; [18],60%
same,pest or weed control at 125 g/ha,[3]; [18],65%
same,pest or weed control at 250 g/ha,"[3]; post-emergence, Postemergence, scale 0 to 100, read-out: Plant response rating, Bermudagrass",70%
same,pest or weed control at 31 g/ha,[3]; [19],0%
same,pest or weed control at 62 g/ha,[3]; [19],0%
same,pest or weed control at 125 g/ha,[3]; [20],20%
same,pest or weed control at 250 g/ha,[3]; [20],20%
same,pest or weed control at 31 g/ha,"[4]; post-emergence, Postemergence, read-out: Plant response rating (scale of 0 to 100), Johnsongrass",60%
same,pest or weed control at 62 g/ha,[4]; [21],80%
same,pest or weed control at 125 g/ha,[4]; [21],85%
same,pest or weed control at 250 g/ha,"[4]; post-emergence, Postemergence, scale 0 to 100, read-out: Plant response rating, Johnsongrass",85%
same,pest or weed control at 31 g/ha,[4]; [22],5%
same,pest or weed control at 62 g/ha,[4]; [22],5%
same,pest or weed control at 125 g/ha,[4]; [23],50%
same,pest or weed control at 250 g/ha,[4]; [23],60%
same,pest or weed control at 31 g/ha,"[5]; 31 g ai/ha, read-out: Plant response rating (scale of 0 to 100), Chickweed",0%
same,pest or weed control at 62 g/ha,"[5]; 62 g ai/ha, scale 0 to 100 (0 no effect, 100 complete control), read-out: Chickweed plant response rating",0%
same,pest or weed control at 125 g/ha,"[5]; 125 g ai/ha, scale 0 to 100 (0 no effect, 100 complete control), read-out: Chickweed plant response rating",0%
same,pest or weed control at 250 g/ha,"[5]; 250 g ai/ha, scale 0 to 100, read-out: Plant response rating, Chickweed",55%
same,pest or weed control at 125 g/ha,[6]; [24],70%
same,pest or weed control at 500 g/ha,[6]; [24],80%
same,pest or weed control at 125 g/ha,[6]; [25],15%
same,pest or weed control at 500 g/ha,[6]; [25],70%
same,pest or weed control at 125 g/ha,[7]; [24],90%
same,pest or weed control at 500 g/ha,[7]; [24],100%
same,pest or weed control at 125 g/ha,[7]; [25],20%
same,pest or weed control at 500 g/ha,[7]; [25],100%
same,pest or weed control at 125 g/ha,[8]; [24],80%
same,pest or weed control at 500 g/ha,[8]; [24],95%
same,pest or weed control at 125 g/ha,[8]; [25],40%
same,pest or weed control at 500 g/ha,[8]; [25],70%
same,pest or weed control at 125 g/ha,[9]; [24],50%
same,pest or weed control at 500 g/ha,[9]; [24],70%
same,pest or weed control at 125 g/ha,[9]; [25],25%
same,pest or weed control at 500 g/ha,[9]; [25],90%
same,pest or weed control at 125 g/ha,[10]; [24],95%
same,pest or weed control at 500 g/ha,[10]; [24],100%
same,pest or weed control at 125 g/ha,[10]; [25],25%
same,pest or weed control at 500 g/ha,[10]; [25],95%
same,pest or weed control at 125 g/ha,[11]; [24],25%
same,pest or weed control at 500 g/ha,[11]; [24],70%
same,pest or weed control at 125 g/ha,[11]; [25],0%
same,pest or weed control at 500 g/ha,[11]; [25],60%
